Series [1] deals with T1, human GRF receptor (Homo sapiens, UniProt Q02643).
T1 construct: expressed in transfected cells
T1 sequence (Q02643 23-423): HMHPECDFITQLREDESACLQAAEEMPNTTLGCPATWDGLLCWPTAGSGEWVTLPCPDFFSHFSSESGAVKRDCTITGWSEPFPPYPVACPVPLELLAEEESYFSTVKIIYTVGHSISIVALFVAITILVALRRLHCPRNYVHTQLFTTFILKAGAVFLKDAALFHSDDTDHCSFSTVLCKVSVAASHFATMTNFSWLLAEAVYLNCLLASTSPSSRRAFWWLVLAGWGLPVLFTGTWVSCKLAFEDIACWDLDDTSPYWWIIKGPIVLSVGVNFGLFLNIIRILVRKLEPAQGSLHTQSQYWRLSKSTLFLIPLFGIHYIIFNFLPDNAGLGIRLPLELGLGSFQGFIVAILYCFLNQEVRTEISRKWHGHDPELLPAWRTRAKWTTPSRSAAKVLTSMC
Put plainly: Reporter gene assay in BHK cells (cAMP-inducible alkaline phosphatase). Format: cell-based. The note with it: for Emax / SNR (signal to noise ratio) / EC50: 24 h; for EC50: peptides 10^-5 M to 10^-12 M.
Method: BHK cells stably transfected with the human GRF receptor and an alkaline phosphatase reporter gene were plated in 96-well plates at 5×10^4 cells/well and incubated overnight. The next day, cells were washed twice with PBS and maintained for 10-30 min. in assay buffer (DMEM without phenol red, 20 mM HEPES and 1% heat-inactivated fetal bovine serum (FBS)). Peptides from 10^−5 M to 10^−12 M were added to the cells and incubated for 24 h. The alkaline phosphatase level in the culture supernatants were performed using the Alkaline Phosphatase detection kit from Invitrogen® (cat. #T1017).

Series [2] relates to GH secretion. The experiment in a line: GH response in female Sprague-Dawley rats (plasma GH ELISA). The format is in vivo, rat. To be noted: for AUC(0-60 min) of GH, fold lower than TH9507 / Cmax of GH, fold lower than TH9507 / GH secretion in rats (in words) / AUC(0-60min) of GH / TMAX of GH: female rats; for AUC(0-60 min) of GH, fold lower than TH9507 / Cmax of GH, fold lower than TH9507 / GH secretion in rats (in words): 10 μg/rat; for AUC(0-60min) of GH / TMAX of GH: 10 μg/rat subcutaneous, 5% mannitol. Here is the method: The reporter gene assay was performed on baby hamster kidney (BHK) cells stably expressing the human GRF receptor and a cAMP-inducible alkaline phosphatase reporter gene; the peptides were tested at concentrations from 1 pM to 10 μM. Acute GH response was measured in blood samples obtained from female rats that were injected with 10 μg/rat peptides in 5% mannitol.
Sprague-Dawley rats (female, 250-300 g) were obtained from Charles River Inc. The animals were kept in groups of 4 rats per cage and were maintained on standard laboratory chow in 12:12 light:dark cycle.
On the day of the experiment, the animals were anesthetized with 2.5% isoflurane. A mid-section opening was made in the neck to expose the carotid artery. The carotid artery was cannulated with polypropylene tube (PE-50) for blood withdrawal. The rats were subcutaneously injected with the peptides (10 μg/rat) dissolved in formulation 5 (20 mM Sodium Acetate, 5% D-mannitol pH 5 (adjusted with AcOH). Blood samples (400 μL) were collected at pre-dose and at 5, 10, 15, 30 and 60 minutes after the injection into microtainer tubes containing K3EDTA and 25 μl of acidified Hank's buffered salt solution (AHBSS). The samples were immediately centrifuged in a microfuge for 2 minutes and the plasma was collected into screwcap Eppendorf™ tubes and quickly frozen in liquid nitrogen. The samples were kept at −80° C.
Rat plasma samples were thawed on ice, vortexed briefly to mix the contents and centrifuged at 9,000 RPM for 2 min at 4° C. GH levels were determined using the Rat/Mouse Growth Hormone ELISA kit from Millipore® (Cat. #EZRMGH-45K). Samples were diluted 10-fold with the assay buffer and 10 μl of the diluted samples were added along with 90 μl of assay buffer to the ELISA plate. The remainder of the assay was performed according to the manufacturer's protocol.
The standard curve was plotted using the 4-parameter logistic equation using GraphPad Prism™ software and was used to determine the GH concentration of plasma samples. The data were analyzed using one-way analysis of variance. Bonferroni's test was used to make comparisons among different treatments.
Background: ELISA stands for enzyme-linked immunosorbent assay.

The nature of series [3]: Formation of TH0601 from TH05111 or tesamorelin with and without HP-β-CD (FIG. 19). Format: physicochemical. To be noted: 8 mg/mL peptide, 10% HP-β-CD vs 5% mannitol, pH 6. The protocol:
Isomerization of Asp^8 in the structure of TH05111 leads to formation of the tesamorelin degradant TH0601, which makes it possible to monitor degradation by using the same chromatographic conditions as for tesamorelin.
The comparison of the kinetics of TH0601 formation in the solutions containing 8 mg/mL of TH05111 or tesamorelin with and without HP-β-CD is shown in FIG. 19.

One may read the Emax as the size of the effect at its maximum, as opposed to the concentration needed. The term EC50 denotes the concentration needed to bring the measured effect to its halfway point.

Entries after “also recorded” stand apart in the source; their conditions may differ. *1 amine or outer side, *2 acyl side, *3 side chain or, on linkers, in order; H or OH if unused. [ ]: non-standard residue; d: D form. The star is where a group is joined. βAsp = O=C(O)[C@H](CC(=O)[*:2])N[*:1]; Hexenoyl(3E) = CC/C=C/CC(=O)*

As to “{Hexenoyl(3E)}-YADAIFT[βAsp]SYRKVLGQLSARKLLQDIMSRQQGESNQERGARARL-NH2 [TH0601, β-Asp^8 tesamorelin]”, in series [1], the “EC50 fold higher than TH9507” value was 500 fold, the maximal effect (Emax) worked out at 120 ± 23.5%, the “SNR (signal to noise ratio)” value worked out at 26.9 and a half-maximal effect (EC50) was put at 30 ± 30.4 nM. Also, in series [2], the “AUC(0-60 min) of GH, fold lower than TH9507” value was 12.4 fold; the “Cmax of GH, fold lower than TH9507” value worked out at 14.0 fold; the “GH secretion in rats (in words)” value was “biologically inactive”; the “AUC(0-60min) of GH” value was 1533 ± 734 ng·min/mL. The “TMAX of GH” value in series [2] is given as 5 min.

Turning to “{Hexenoyl(3E)}-YADAIFTDSYRKVLGQLSARKLLQDIMSRQQGESNQERGARARL-NH2 [TH05111, Asp^8 tesamorelin]”, the “Isomerization of the Asp^8 residue in the presence of HP-β-CD” value in series [3] is recorded as “facilitated”. Besides, in series [1], the “In vitro potency compared to TH9507 (in words)” value was “comparable to TH9507; also recorded: equipotent”, the Emax was 114 ± 17%, the “SNR (signal to noise ratio)” value was determined as 25.3 and the EC50 came out at 0.08 ± 0.02 nM. Also, in series [2], the “AUC(0-60 min) of GH, fold lower than TH9507” value came to 2.9 fold; the “Cmax of GH, fold lower than TH9507” value was 2.2 fold; the “AUC(0-60min) of GH” value came to 6540 ± 2647 ng·min/mL; the “TMAX of GH” value was 5 min. The “GH-releasing activity in vivo compared to parent molecule” value in series [2] (relative to tesamorelin, FIG. 1) is reported as roughly 30%.

In the case of `CC/C=C/CC(=O)N[C@@H](Cc1ccc(O)cc1)C(=O)N[C@@H](C)C(=O)N[C@@H](CC(=O)O)C(=O)N[C@@H](C)C(=O)N[C@H](C(=O)N[C@@H](Cc1ccccc1)C(=O)N[C@H](C(=O)N[C@@H](CC(N)=O)C(=O)N[C@@H](CO)C(=O)N[C@@H](Cc1ccc(O)cc1)C(=O)N[C@@H](CCCNC(=N)N)C(=O)N[C@@H](CCCCN)C(=O)N[C@H](C(=O)N[C@@H](CC(C)C)C(=O)NCC(=O)N[C@@H](CCC(N)=O)C(=O)N[C@@H](CC(C)C)C(=O)N[C@@H](CO)C(=O)N[C@@H](C)C(=O)N[C@@H](CCCNC(=N)N)C(=O)N[C@@H](CCCCN)C(=O)N[C@@H](CC(C)C)C(=O)N[C@@H](CC(C)C)C(=O)N[C@@H](CCC(N)=O)C(=O)N[C@@H](CC(=O)O)C(=O)N[C@H](C(=O)N[C@@H](CC[S+](C)[O-])C(=O)N[C@@H](CO)C(=O)N[C@@H](CCCNC(=N)N)C(=O)N[C@@H](CCC(N)=O)C(=O)N[C@@H](CCC(N)=O)C(=O)NCC(=O)N[C@@H](CCC(=O)O)C(=O)N[C@@H](CO)C(=O)N[C@@H](CC(N)=O)C(=O)N[C@@H](CCC(N)=O)C(=O)N[C@@H](CCC(=O)O)C(=O)N[C@@H](CCCNC(=N)N)C(=O)NCC(=O)N[C@@H](C)C(=O)N[C@@H](CCCNC(=N)N)C(=O)N[C@@H](C)C(=O)N[C@@H](CCCNC(=N)N)C(=O)N[C@@H](CC(C)C)C(N)=O)[C@@H](C)CC)C(C)C)[C@@H](C)O)[C@@H](C)CC` (some centres unmarked) [TH0286, N-Hex-hGRF[1-44]Met[O]27 amide], the “In vitro potency compared to TH9507 (in words)” value in series [1] was “comparable to TH9507”. Moreover, in series [2], the “GH secretion in rats (in words)” value is listed as “not significantly different”, the “AUC(0-60min) of GH” value came to 14751 ± 5745 ng·min/mL and the “TMAX of GH” value is 10 min.

Take `CC/C=C/CC(=O)N[C@@H](Cc1ccc(O)cc1)C(=O)N[C@@H](C)C(=O)N[C@@H](CC(=O)O)C(=O)N[C@@H](C)C(=O)N[C@H](C(=O)N[C@@H](Cc1ccccc1)C(=O)N[C@H](C(=O)N[C@@H](CC(N)=O)C(=O)N[C@@H](CO)C(=O)N[C@@H](Cc1ccc(O)cc1)C(=O)N[C@@H](CCCNC(=N)N)C(=O)N[C@@H](CCCCN)C(=O)N[C@H](C(=O)N[C@@H](CC(C)C)C(=O)NCC(=O)N[C@@H](CCC(N)=O)C(=O)N[C@@H](CC(C)C)C(=O)N[C@@H](CO)C(=O)N[C@@H](C)C(=O)N[C@@H](CCCNC(=N)N)C(=O)N[C@@H](CCCCN)C(=O)N[C@@H](CC(C)C)C(=O)N[C@@H](CC(C)C)C(=O)N[C@@H](CCC(N)=O)C(=O)N[C@@H](CC(=O)O)C(=O)N[C@H](C(=O)N[C@@H](CCSC)C(=O)N[C@@H](CO)C(=O)N[C@@H](CCCNC(=N)N)C(=O)N[C@@H](CCC(N)=O)C(=O)N[C@@H](CCC(N)=O)C(=O)NCC(=O)N[C@@H](CCC(=O)O)C(=O)N[C@@H](CO)C(=O)N[C@@H](CC(N)=O)C(=O)N[C@@H](CCC(N)=O)C(=O)N[C@@H](CCC(=O)O)C(=O)N[C@@H](CCCNC(=N)N)C(=O)NCC(=O)N[C@@H](C)C(=O)N[C@@H](CCCNC(=N)N)C(=O)N[C@@H](C)C(=O)N[C@@H](CCCNC(=N)N)C(=O)N[C@@H](CC(C)C)C(N)=O)[C@@H](C)CC)C(C)C)[C@@H](C)O)[C@@H](C)CC` [TH9507, [trans-3-hexenoyl]hGRF (1-44) amide]: in series [1], the Emax was determined as 100 ± 11.3% and the “SNR (signal to noise ratio)” value worked out at 22.3. Further, in series [2], the “AUC(0-60min) of GH” value was found to be 18953 ± 6317 ng·min/mL and the “TMAX of GH” value is on record as 10 min.

With `CC/C=C/CC(=O)N[C@@H](Cc1ccc(O)cc1)C(=O)N[C@@H](C)C(=O)N[C@@H](CC(=O)N[C@@H](C)C(=O)N[C@H](C(=O)N[C@@H](Cc1ccccc1)C(=O)N[C@H](C(=O)N[C@@H](CC(N)=O)C(=O)N[C@@H](CO)C(=O)N[C@@H](Cc1ccc(O)cc1)C(=O)N[C@@H](CCCNC(=N)N)C(=O)N[C@@H](CCCCN)C(=O)N[C@H](C(=O)N[C@@H](CC(C)C)C(=O)NCC(=O)N[C@@H](CCC(N)=O)C(=O)N[C@@H](CC(C)C)C(=O)N[C@@H](CO)C(=O)N[C@@H](C)C(=O)N[C@@H](CCCNC(=N)N)C(=O)N[C@@H](CCCCN)C(=O)N[C@@H](CC(C)C)C(=O)N[C@@H](CC(C)C)C(=O)N[C@@H](CCC(N)=O)C(=O)N[C@@H](CC(=O)O)C(=O)N[C@H](C(=O)N[C@@H](CCSC)C(=O)N[C@@H](CO)C(=O)N[C@@H](CCCNC(=N)N)C(=O)N[C@@H](CCC(N)=O)C(=O)N[C@@H](CCC(N)=O)C(=O)NCC(=O)N[C@@H](CCC(=O)O)C(=O)N[C@@H](CO)C(=O)N[C@@H](CC(N)=O)C(=O)N[C@@H](CCC(N)=O)C(=O)N[C@@H](CCC(=O)O)C(=O)N[C@@H](CCCNC(=N)N)C(=O)NCC(=O)N[C@@H](C)C(=O)N[C@@H](CCCNC(=N)N)C(=O)N[C@@H](C)C(=O)N[C@@H](CCCNC(=N)N)C(=O)N[C@@H](CC(C)C)C(N)=O)[C@@H](C)CC)C(C)C)[C@@H](C)O)[C@@H](C)CC)C(=O)O` [TH0677, β-Asp^3 tesamorelin], in series [1], the “EC50 fold higher than TH9507” value stood at 71 fold, the Emax is 116 ± 25.8% and the “SNR (signal to noise ratio)” value is 25.9. Further, the “GH secretion in rats (in words)” value in series [2] was “did not produce GH; also recorded: did not stimulate GH secretion; also recorded: biologically inactive”.

`CC/C=C/CC(=O)N[C@@H](Cc1ccc(O)cc1)C(=O)N[C@@H](C)C(=O)N[C@H]1CC(=O)N([C@@H](C)C(=O)N[C@H](C(=O)N[C@@H](Cc2ccccc2)C(=O)N[C@H](C(=O)N[C@@H](CC(N)=O)C(=O)N[C@@H](CO)C(=O)N[C@@H](Cc2ccc(O)cc2)C(=O)N[C@@H](CCCNC(=N)N)C(=O)N[C@@H](CCCCN)C(=O)N[C@H](C(=O)N[C@@H](CC(C)C)C(=O)NCC(=O)N[C@@H](CCC(N)=O)C(=O)N[C@@H](CC(C)C)C(=O)N[C@@H](CO)C(=O)N[C@@H](C)C(=O)N[C@@H](CCCNC(=N)N)C(=O)N[C@@H](CCCCN)C(=O)N[C@@H](CC(C)C)C(=O)N[C@@H](CC(C)C)C(=O)N[C@@H](CCC(N)=O)C(=O)N[C@@H](CC(=O)O)C(=O)N[C@H](C(=O)N[C@@H](CCSC)C(=O)N[C@@H](CO)C(=O)N[C@@H](CCCNC(=N)N)C(=O)N[C@@H](CCC(N)=O)C(=O)N[C@@H](CCC(N)=O)C(=O)NCC(=O)N[C@@H](CCC(=O)O)C(=O)N[C@@H](CO)C(=O)N[C@@H](CC(N)=O)C(=O)N[C@@H](CCC(N)=O)C(=O)N[C@@H](CCC(=O)O)C(=O)N[C@@H](CCCNC(=N)N)C(=O)NCC(=O)N[C@@H](C)C(=O)N[C@@H](CCCNC(=N)N)C(=O)N[C@@H](C)C(=O)N[C@@H](CCCNC(=N)N)C(=O)N[C@@H](CC(C)C)C(N)=O)[C@@H](C)CC)C(C)C)[C@@H](C)O)[C@@H](C)CC)C1=O` [TH1063, Asu^3 tesamorelin] gave an Emax in series [1] of 95.7 ± 8.1%.
